For the assay, the target named is T1, PPARα (Homo sapiens, UniProt Q07869).
T1 construct: expressed in transfected cells; host or cells: Hela cells
T1 sequence (Q07869 1-468): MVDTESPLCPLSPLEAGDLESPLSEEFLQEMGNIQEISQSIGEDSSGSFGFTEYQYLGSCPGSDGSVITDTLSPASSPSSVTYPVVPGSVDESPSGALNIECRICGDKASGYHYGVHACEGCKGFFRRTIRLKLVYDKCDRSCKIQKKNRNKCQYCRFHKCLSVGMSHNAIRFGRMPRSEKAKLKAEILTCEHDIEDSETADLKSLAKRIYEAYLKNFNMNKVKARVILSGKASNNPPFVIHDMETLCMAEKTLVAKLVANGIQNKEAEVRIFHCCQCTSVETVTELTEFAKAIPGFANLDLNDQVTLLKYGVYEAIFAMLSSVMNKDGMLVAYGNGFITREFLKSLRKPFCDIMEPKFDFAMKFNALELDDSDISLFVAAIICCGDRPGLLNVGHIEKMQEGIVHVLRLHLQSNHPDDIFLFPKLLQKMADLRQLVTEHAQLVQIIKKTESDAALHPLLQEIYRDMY
In words: Hela cell/luciferase reporter gene method, PPARα agonist activity. The assay is classed as cell-based. The settings on record: Hela cells, pPPRE3-TK-Luciferase reporter, 24 hrs incubation; read-out: agonistic activity on PPAα (EC50). The method, then: This example measures the biological activity of a PPAR agonist using the Hela cell/luciferase reporter gene method.
The target plasmids PCMV PPARα (Ampicillin+), PCMV PPARγ (Ampicillin+), PCMV PPARδ (Ampicillin+), and pPPRE3-TK-Luciferase (Ampicillin+) were introduced into DH5a competent cells by heat shock treatment, respectively. After being incubated for 1 hour at 37° C. with shaking (180 rpm), the cells were inoculated on LB agar solid medium containing antibiotic Ampicillin, and invertedly cultured at 37° C. for 12-16 hours. Then the monoclonal colony cultured on the medium was taken and inoculated into LB liquid medium for expanded culture. The desired plasmid was extracted from the resulting bacterial solution with a Plasmid Midi Kit (Qiagen; #12143). The plasmid obtained by centrifugation was suspended in TE buffer, and the plasmid concentration was measured and the mixture was stored at −20° C. Hela cells in the exponential phase were seeded in 6-well plates (8-10^5 cells/well), and after 6-8 hours of culture, the cells were transfected using Lipofectamine® 3000 Transfection Reagent (Invitrogen; #L3000015). A plasmid containing a PPAR binding site (peroxisome proliferator response element, PPRE) and a firefly luciferase gene (pPPRE3-TK-Luciferase) and PPAR expression vector were co-transfected into a Hela cell with a total amount of plasmid DNA of 2.5 ug (the mass ratio of each PPAR expression vector is pPPRE:PPARα=6:1, pPPRE:PPARδ=8:1, and pPPRE:PPARγ=2:1) to construct a drug screening cell model for PPAR agonists. PPAR was binded to the ligand and then binded to the peroxisome proliferator response element (PPRE), thereby initiating downstream firefly luciferase expression and its expression intensity was directly proportional to the degree of PPAR activation. The cells after 24 hours transfection were prepared into a cell suspension with a cell concentration of […] by a complete culture solution, and seeded into a 96-well plate with 100 ul per well. After overnight culture, the medium was changed to a medium containing 1% FBS. 10 mM candidate compound stock (1000×) were 4-fold diluted in DMSO for 8 points, then supplemented with medium containing 1% FBS to a final concentration of 50 uM (5×) by addition of 25 μl of 5× compound diluent to each well in different concentration gradients and incubated under 37° C., 5% CO2 incubator for 24 hrs. The 96-well plate was taken out and 30 μl of Bright-Glo™ Luciferase Assay System (Promega #E2620) was added to each well. The Luciferase luminescence intensity was measured by a SynergyH1 full-function microplate detector. The obtained data was used to calculate EC50 using GraphPad Prism 5.0 software to determine the biological activity of the compound.
The agonistic activity of the compounds synthesized in Examples 1-41 on PPAR is represented by EC50 (see Table 1). EC50 refers to the drug concentration at which the compound has a 50% increase in the agonistic activity of the measured PPAR. The compound numbers in Table 1 correspond to the compound numbers in Examples 1-41.

Here are results for 20 compounds from patent US11306102B2, “1,3-di-substituted ketene compound and application thereof” (BEBETTER MED INC., priority 2017, dated 2022).

One may read the EC50 as the midpoint of the concentration-response curve. Take `Cc1cc(/C=C/C(=O)c2cc3ccccc3o2)cc(C)c1OC(C)(C)C(=O)O` [Compound 49, (E)-2-(4-(3-(benzofuran-2-yl)-3-oxoprop-1-en-1-yl)-2,6-dimethylphenoxy)-2-methylpropanoic acid]: the EC50 was 874 nM.
As to `CCSc1ccc2c(C)c(C(=O)/C=C/c3cc(C)c(OC(C)(C)C(=O)O)c(C)c3)sc2c1` [Compound 94, (E)-2-(4-(3-(6-(ethylthio)-3-methylbenzo[b]thiophen-2-yl)-3-oxoprop-1-en-1-yl)-2,6-dimethylphenoxy)-2-methylpropanoic acid], the EC50 turned out to be 41.9 nM.
Under `CCOc1ccc2cc(C(=O)/C=C/c3cc(C)c(OC(C)(C)C(=O)O)c(C)c3)oc2c1` [Compound 44, (E)-2-(4-(3-(6-ethoxylbenzofuran-2-yl)-3-oxoprop-1-en-1-yl)-2,6-dimethylphenoxy)-2-methylpropanoic acid] stands 7.67 nM; under `CSc1ccc2c(C(F)(F)F)c(C(=O)/C=C/c3cc(C)c(OC(C)(C)C(=O)O)c(C)c3)oc2c1` [Compound 73, (E)-2-(2,6-dimethyl-4-(3-(6-(methylthio)-3-(trifluoromethyl)benzofuran-2-yl)-3-oxoprop-1-en-1-yl)phenoxy)-2-methylpropanoic acid], 3.8 nM; under `Cc1cc(/C=C/C(=O)c2oc3cc(SC(C)C)ccc3c2C)cc(C)c1OC(C)(C)C(=O)O` [Compound 77, (E)-2-(4-(3-(6-(isopropylthio)-3-methylbenzofuran-2-yl)-3-oxoprop-1-en-1-yl)-2,6-dimethylphenoxy)-2-methylpropanoic acid], 121 nM.
Consider `CSc1ccc(C(=O)/C=C/c2cc(C)c(OC(C)(C)C(=O)O)c(C)c2)c2oc(C)nc12` [Compound 20, (E)-2-(2,6-dimethyl-4-(3-(2-methyl-4-(methylthio)benzo[d]oxazol-7-yl)-3-oxoprop-1-en-1-yl)phenoxy)-2-methylpropanoic acid], for which the EC50 was determined as 165 nM.
The same measure for `CNc1ccc(C(=O)/C=C/c2cc(C)c(OC(C)(C)C(=O)O)c(C)c2)c2occc12` [Compound 2, (E)-2-(2,6-dimethyl-4-(3-(4-(methylamino)benzofuran-7-yl)-3-oxoprop-1-en-1-yl)phenoxy)-2-methylpropanoic acid]: 948 nM.
Under `CSc1ccc2cc(C(=O)/C=C/c3cc(C)c(OC(C)(C)C(=O)O)c(C)c3)[nH]c2c1` [Compound 88, (E)-2-(2,6-dimethyl-4-(3-(6-(methylthio)-1H-indol-2-yl)-3-oxoprop-1-en-1-yl)phenoxy)-2 methylpropanoic acid] stands 2440 nM; under `CSc1ccc2cc(C(=O)/C=C/c3cc(C)c(OCC(=O)O)c(C)c3)oc2c1` [Compound 57, (E)-2-(2,6-dimethyl-4-(3-(6-(methylthio)benzofuran-2-yl)-3-oxoprop-1-en-1-yl)phenoxy)acetic acid], 1180 nM.
The same measure for `Cc1cc(/C=C/C(=O)c2ccc(SCC(C)C)c3ccoc23)cc(C)c1OC(C)(C)C(=O)O` [Compound 9, (E)-2-(4-(3-(4-(isobutylthio)benzofuran-7-yl)-3-oxoprop-1-en-1-yl)-2,6-dimethylphenoxy)-2-methylpropanoic acid]: 46.8 nM; for `COc1cc(/C=C/C(=O)c2oc3cc(SC)ccc3c2C)cc(OC)c1OC(C)(C)C(=O)O` [Compound 102, (E)-2-(2,6-dimethoxy-4-(3-(3-methyl-6-(methylthio)benzofuran-2-yl)-3-oxoprop-1-en-1-yl)phenoxy)-2-methylpropanoic acid]: 191 nM.
Turning to `Cc1cc(/C=C/C(=O)c2ccc3scnc3c2)cc(C)c1OC(C)(C)C(=O)O` [Compound 39, (E)-2-(4-(3-(benzo[d]thiazol-5-yl)-3-oxoprop-1-en-1-yl)-2,6-dimethylphenoxy)-2-methylpropanoic acid], the EC50 was 366 nM.
For the compound `CSc1ccc2c(C)c(C(=O)/C=C/c3cc(C)c(OC(C)(C)C(=O)O)c(C)c3)sc2c1` [Compound 82, (E)-2-(2,6-dimethyl-4-(3-(3-methyl-6-(methylthio)benzo[b]thiophen-2-yl)-3-oxoprop-1-en-1-yl)phenoxy)-2-methylpropanoic acid], the EC50 amounted to 70.2 nM.
Regarding `COc1cc(/C=C/C(=O)c2cc3ccc(SC)cc3o2)cc(OC)c1OC(C)(C)C(=O)O` [Compound 99, (E)-2-(2,6-dimethoxy-4-(3-(6-(methylthio)benzofuran-2-yl)-3-oxoprop-1-en-1-yl)phenoxy)-2-methylpropanoic acid], the concentration giving a half-maximal response (EC50) stood at 52.1 nM.
In the case of `CCCSc1ccc2c(C)c(C(=O)/C=C/c3cc(C)c(OC(C)(C)C(=O)O)c(C)c3)oc2c1` [Compound 75, (E)-2-(2,6-dimethyl-4-(3-(3-methyl-6-(propylthio)benzofuran-2-yl)-3-oxoprop-1-en-1-yl)phenoxy)-2-methylpropanoic acid], the EC50 amounted to 121 nM.
For `CSc1ccc2c(C)c(C(=O)/C=C/c3cc(C(C)C)c(OC(C)(C)C(=O)O)c(C(C)C)c3)oc2c1` [Compound 104, (E)-2-(2,6-diisopropyl-4-(3-(3-methyl-6-(methylthio)benzofuran-2-yl)-3-oxoprop-1-en-1-yl)phenoxy)-2-methylpropanoic acid], the EC50 came to 382 nM.
As to `CSc1cccc2cc(C(=O)/C=C/c3cc(C)c(OC(C)(C)C(=O)O)c(C)c3)oc12` [Compound 58, (E)-2-(2,6-dimethyl-4-(3-(7-(methylthio)benzofuran-2-yl)-3-oxoprop-1-en-1-yl)phenoxy)-2-methylpropanoic acid], the EC50 worked out at 352 nM.
As to `CSc1ccc2c(C(C)C)c(C(=O)/C=C/c3cc(C)c(OC(C)(C)C(=O)O)c(C)c3)oc2c1` [Compound 64, (E)-2-(4-(3-(3-isopropyl-6-(methylthio)benzofuran-2-yl)-3-oxoprop-1-en-1-yl)-2,6-dimethylphenoxy)-2-methylpropanoic acid], the EC50 worked out at 105 nM.
With `Cc1cc(/C=C/C(=O)c2oc3cc(SCC(C)C)ccc3c2C)cc(C)c1OC(C)(C)C(=O)O` [Compound 76, (E)-2-(4-(3-(6-(isobutylthio)-3-methylbenzofuran-2-yl)-3-oxoprop-1-en-1-yl)-2,6-dimethylphenoxy)-2-methylpropanoic acid], the EC50 stood at 58.9 nM.
The same measure for `CSc1ccc2cc(C(=O)/C=C/c3cc(C(C)C)c(OC(C)(C)C(=O)O)c(C(C)C)c3)oc2c1` [Compound 101, (E)-2-(2,6-diisopropyl-4-(3-(6-(methylthio)benzofuran-2-yl)-3-oxoprop-1-en-1-yl)phenoxy)-2-methylpropanoic acid]: 477 nM.
